Results published in US20230241211A1, “BISPECIFIC ANTIBODY AGAINST CD3 AND CD20 IN COMBINATION THERAPY FOR TREATING DIFFUSE LARGE B-CELL LYMPHOMA” (GENMAB A/S, priority 2022, published 2023).

What was measured:
T cells = experiment: T-cell activation with immobilized anti-CD3 in presence or absence of lenalidomide; assay type: cell-based; settings: CD3 crosslinking with immobilized anti-CD3, lenalidomide 5 or 50 μM, 3 days; compared to no lenalidomide
Description: T cells were pre-incubated with assay medium or lenalidomide in the absence or presence of CD3 crosslinking by immobilized anti-CD3 for 3 days (as indicated on the x-axes), after which upregulation of CD69, CD25, PD-1 and LAMP-1 on CD4^+ and CD8^+ T cells was determined by flow cytometry. Data shown are geomean fluorescence intensities (FI) for four donors (each circle represents one condition for one donor). Pre-incubation conditions are shown on the x-axis.
(§1) Briefly, T cells were activated with immobilized anti-CD3 in the presence (5 or 50 μM) or absence of lenalidomide for 3 days. […] T cells that were activated in the presence or absence of lenalidomide were subsequently tested for their cytotoxic capacity in response to epcoritamab.

[1] = test system: relapsed or refractory (R/R) B-NHL; highly refractory large B-cell lymphoma; settings: epcoritamab monotherapy, n=157, cited from earlier work
[2] = test system: CD20-expressing Daudi cells; experiment: Epcoritamab-induced T-cell-mediated cytotoxicity assay with lenalidomide-pretreated T cells; assay type: cell-based; settings: T cells pre-treated with lenalidomide (5 or 50 μM) and anti-CD3 for 3 days, Daudi target cells, E:T ratio 2:1
Description: T cells were incubated with (5 or 50 μM) or without lenalidomide in the absence or presence of immobilized anti-CD3 for 3 days. […] Data shown are average percentages cytotoxicity ±SD of duplicates, normalized to medium control (no antibody, no lenalidomide).
as §1

[3] = highly refractory large B-cell lymphoma

## Nc1cccc2c1CN(C1CCC(=O)NC1=O)C2=O (stereo not shown) [lenalidomide, 3-(4-Amino-1-oxo-1,3-dihydro-2H-isoindol-2-yl) piperidine-2,6-dione]
T cells
  T-cell activation (upregulation of activation markers CD69, CD25 on the T cell surface, release of granzyme B and IFNγ): increased T-cell activation

## epcoritamab: IgG1 bispecific CD3×CD20 antibody; heavy/light chain pairs SEQ ID NOs: 24/25 and 26/27; CAS 2134641-34-0
[1]; [3]
  complete response (CR) rate: 39%
  median duration of response (DOR): 12 months
  overall response rate (ORR): 63%
[1]
  safety profile: manageable safety profile
[2]
  activity at lower epcoritamab concentrations: higher activity at lower epcoritamab concentrations
[2]; versus T cells without lenalidomide
  maximum percent cytotoxicity: Higher maximum percent cytotoxicity
